Source: PMC9050506 (RSC Advances, 2020)

B1: CVN2L0-V4: CVN2L0 variant with Cys–Cys mutagenesis to Trp–Met and Glu–Arg, two disulfide bonds (protein)
chain: LGKFSQTCYNSAIQGSVLTSTCERTNGGYNTSSIDLNSVIENVDGSLKWQPSNFIETWRNTQLAGSSELAAEMKTRAQQFVSTKINLDDHIANIDGTLKYELGKFSQTCYNSAIQGSVLTSTCERTNGGYNTSSIDLNSVIENVDGSLKWQPSNFIETERNTQLAGSSELAAERKTRAQQFVSTKINLDDHIANIDGTLKYE
modifications: left off: His6, N-terminal, state not stated

System: Recombinant influenza A virus hemagglutinin H3 protein (HA)
Conditions: SPR sensorgrams Fig. 3A-D

Molecule | Rmax, binding to HA [RU]
CVN2L0-V2: CVN2L0 variant with one C58E–C73R substitution, three disulfide bonds | 723
B1 | 34
